Reference: patent publication US6750224B1, “Antibacterial optically pure benzoquinolizine carboxylic acids, processes, compositions and methods of treatment” (priority 1999, dated 2004)

Legend:
[1] = system: S.aureus strain bearing Nor A efflux pump; assay type: cell-based; conditions: Nor A efflux pump strain vs strain devoid of efflux pump
Method: Using this set of MIC values, % loss in potency due to efflux was calculated for each of the fluoroquinolone in Table 5

Acinetobacter 3109 = test: Effect of pH on potency of fluoroquinolones (MIC at pH 5.5 and 7.0); assay type: cell-based; conditions: MIC pH 7 vs pH 5.5
Excerpt: (§1) The test method was in accordance with the standard NCCLS protocol employing test media adjusted at pH 5.5 and 7.0.

E. coli 2015 = test: as above; assay type: cell-based; conditions: MIC pH 7 vs pH 5.5
Excerpt: as §1

E. coli 25922 = test: as above; assay type: cell-based; conditions: MIC pH 7 vs pH 5.5
Excerpt: as §1

E. faecalis = test: as above; assay type: cell-based; conditions: MIC pH 7 vs pH 5.5
Excerpt: as §1

Klebsiella 24037 = test: as above; assay type: cell-based; conditions: MIC pH 7 vs pH 5.5
Excerpt: as §1

P. mirabilis 37 = test: as above; assay type: cell-based; conditions: MIC pH 7 vs pH 5.5
Excerpt: as §1

P. rettgeri N 1764 = test: as above; assay type: cell-based; conditions: MIC pH 7 vs pH 5.5
Excerpt: as §1

P. vulgaris 66 = test: as above; assay type: cell-based; conditions: MIC pH 7 vs pH 5.5
Excerpt: as §1

Ps. Aeruginosa = test: as above; assay type: cell-based; conditions: MIC pH 7 vs pH 5.5
Excerpt: as §1

S. aureus 1199-B = test: as above; assay type: cell-based; conditions: MIC pH 7 vs pH 5.5
Excerpt: as §1

S. aureus 25923 = test: as above; assay type: cell-based; conditions: MIC pH 7 vs pH 5.5
Excerpt: as §1

Serratia marcescens 2702 = test: as above; assay type: cell-based; conditions: MIC pH 7 vs pH 5.5
Excerpt: as §1

[2] = Chemical stability under heating (HPLC); assay type: physicochemical
Method: The anhydride and hydrates were each introduced into a glass vial and maintained at 70° C. Thus the thermal decomposition with elapsed time was analysed by HPLC and the results thus obtained are described in Table 8

[3] = Phlebitis on repeated i.v. administration in rats; assay type: in vivo; conditions: doses double those of the sodium salt
Excerpt: This feature would make S-(−)-9-fluoro-6,7-dihydro-8-(4-hydroxypiperidin-1-yl)-5-methyl-1-oxo-1H,5H- benzo[i,j]quinolizine-2-carboxylic acid arginine salt 0.25 H2O and S-(−)-9-fluoro-6,7-dihydro-8-[4-(hydroxy)-1-piperidin-1-yl)-5-methyl-1-oxo-1H,5H-benzo[i,j]quinolizine-2-carboxylic acid arginine salt 0.75 H2O suitable for long term i.v. administration which is commonly undertaken for critically ill patients or patients in intensive care unit.

Phototoxicity studies = conditions: in vivo

CCn1cc(C(=O)O)c(=O)c2cc(F)c(N3CCNCC3)cc21 [Norfloxacin]
% loss in potency for S. aureus bearing Efflux pump [1]: 97%

O=C(O)c1cn(C2CC2)c2cc(N3CCNCC3)c(F)cc2c1=O [Ciprofloxacin]
% change in potency at pH 5.5, loss (−)/gain (+) (Acinetobacter 3109): −97% | % change in potency at pH 5.5, loss (−)/gain (+) (E. coli 2015): −94% | % change in potency at pH 5.5, loss (−)/gain (+) (E. coli 25922): −97.5% | % change in potency at pH 5.5, loss (−)/gain (+) (E. faecalis): −87.5% | % change in potency at pH 5.5, loss (−)/gain (+) (Klebsiella 24037): −97% | % change in potency at pH 5.5, loss (−)/gain (+) (P. mirabilis 37): −96% | % change in potency at pH 5.5, loss (−)/gain (+) (P. rettgeri N 1764): −94% | % change in potency at pH 5.5, loss (−)/gain (+) (P. vulgaris 66): −96% | % change in potency at pH 5.5, loss (−)/gain (+) (Ps. Aeruginosa): −87% | % change in potency at pH 5.5, loss (−)/gain (+) (S. aureus 1199-B): −75% | % change in potency at pH 5.5, loss (−)/gain (+) (S. aureus 25923): −75% | % change in potency at pH 5.5, loss (−)/gain (+) (Serratia marcescens 2702): −99%

C[C@H]1CCc2c(N3CCC(O)CC3)c(F)cc3c(=O)c(C(=O)O)cn1c23.O [Example 4, S-(−)-9-fluoro-6,7-dihydro-8-(4-hydroxypiperidin-1-yl)-5-methyl-1-oxo-1H,5H-benzo[i,j]quinolizine-2-carboxylic acid 0.75 hydrate]
Thermal stability with elapsed time at 70° C. [2]: 98.3% | chemical stability at 70° C., in words [2]: decompose with time

C[C@H]1CCc2c(N3CCC(O)CC3)c(F)cc3c(=O)c(C(=O)O)cn1c23.N=C(N)NCCC[C@H](N)C(=O)O.O [Example 7, S-(−)-9-fluoro-6,7-dihydro-8-(4-hydroxypiperidin-1-yl)-5-methyl-1-oxo-1H,5H-benzo[i,j]quinolizine-2-carboxylic acid, arginine salt 0.25 H2O]
phlebitis [3]: did not cause phlebitis

CO/N=C1\CN(c2nc3c(cc2F)c(=O)c(C(=O)O)cn3C2CC2)CC1CN (stereo not shown) [Gemifloxacin]
% loss in potency for S. aureus bearing Efflux pump [1]: 75%

COc1c(N2CCNC(C)C2)c(F)cc2c(=O)c(C(=O)O)cn(C3CC3)c12 (stereo not shown) [Gatifloxacin]
% loss in potency for S. aureus bearing Efflux pump [1]: 75%

C[C@@H]1CN(c2c(F)c(N)c3c(=O)c(C(=O)O)cn(C4CC4)c3c2F)C[C@H](C)N1 [Sparfloxacin]
phototoxic dosage, times lower than S-(−)-Nadifloxacin (Phototoxicity studies): 25 times
